Measured values reported in ChEMBL document CHEMBL4507266, “Data for DCP probe BAY-784” (2021).

How the values were obtained:
[1] = target: Gonadotropin-releasing hormone receptor (Homo sapiens, UniProt P30968); assay: Mechanistic assay measuring cellular IP1; format: functional
[2] = organism: Rattus norvegicus; assay: Inhibition of Glutamate, NMDA, Phencyclidine at 10 µM in the Eurofins-Panlabs radioligand binding assay (Eurofins_assay_233000); format: protein-complex assay; conditions: Compound concentration 10.0 uM
[3] = target: Cysteinyl leukotriene receptor 1 (Homo sapiens) (UniProt Q9Y271); assay: Inhibition of Leukotriene, Cysteinyl CysLT1 at 10 µM in the Eurofins-Panlabs radioligand binding assay (Eurofins_assay_250460); design: ligand concentration 0.3 nM, non-specific ligand with concentration 0.3 µM Leukotriene D4, incubation time 30 min, incubation temperature 25 °C; conditions: Compound concentration 10.0 uM
[4] = target: ATP-sensitive inward rectifier potassium channel 11 (Cricetulus griseus) (UniProt A0A3L7HHE1); assay: Inhibition of Potassium Channel [KATP] at 10 µM in the Eurofins-Panlabs radioligand binding assay (Eurofins_assay_265600); conditions: Cricetinae; Compound concentration 10.0 uM
Chain of ATP-sensitive inward rectifier potassium channel 11 (Cricetulus griseus) (A0A3L7HHE1 as listed by the source): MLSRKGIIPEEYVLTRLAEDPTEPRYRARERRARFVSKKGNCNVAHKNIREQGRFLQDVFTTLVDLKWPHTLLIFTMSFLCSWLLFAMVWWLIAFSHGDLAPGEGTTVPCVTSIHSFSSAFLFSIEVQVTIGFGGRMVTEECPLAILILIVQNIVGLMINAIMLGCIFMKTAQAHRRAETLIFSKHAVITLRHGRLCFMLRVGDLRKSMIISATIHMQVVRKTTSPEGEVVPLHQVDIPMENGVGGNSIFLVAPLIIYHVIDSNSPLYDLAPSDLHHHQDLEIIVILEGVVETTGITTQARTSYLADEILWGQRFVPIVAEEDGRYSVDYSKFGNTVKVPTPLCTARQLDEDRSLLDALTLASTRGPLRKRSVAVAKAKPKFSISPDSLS

[5] = organism: Sus scrofa; assay: Inhibition of ATPase, Na+/K+, Heart at compound concentration of 10.0 uM in the Eurofins-Panlabs enzyme assay (Eurofins_assay_107710); design: substrate with concentration; conditions: Compound concentration 10.0 uM
[6] = target: Carbonic anhydrase 2 (Homo sapiens) (UniProt P00918); assay: Inhibition of Carbonic Anhydrase II at compound concentration of 10.0 uM in the Eurofins-Panlabs enzyme assay (Eurofins_assay_112020); design: substrate with concentration; conditions: Compound concentration 10.0 uM
[7] = target: Prostaglandin G/H synthase 2 (Homo sapiens) (UniProt P35354); assay: Inhibition of Cyclooxygenase COX-2 at compound concentration of 10.0 uM in the Eurofins-Panlabs enzyme assay (Eurofins_assay_118010); design: substrate with concentration 0.3 uM Arachidonic acid, incubation time 15 min, incubation temperature 37 C; conditions: Compound concentration 10.0 uM
Chain of Prostaglandin G/H synthase 2 (Homo sapiens) (P35354 whole entry): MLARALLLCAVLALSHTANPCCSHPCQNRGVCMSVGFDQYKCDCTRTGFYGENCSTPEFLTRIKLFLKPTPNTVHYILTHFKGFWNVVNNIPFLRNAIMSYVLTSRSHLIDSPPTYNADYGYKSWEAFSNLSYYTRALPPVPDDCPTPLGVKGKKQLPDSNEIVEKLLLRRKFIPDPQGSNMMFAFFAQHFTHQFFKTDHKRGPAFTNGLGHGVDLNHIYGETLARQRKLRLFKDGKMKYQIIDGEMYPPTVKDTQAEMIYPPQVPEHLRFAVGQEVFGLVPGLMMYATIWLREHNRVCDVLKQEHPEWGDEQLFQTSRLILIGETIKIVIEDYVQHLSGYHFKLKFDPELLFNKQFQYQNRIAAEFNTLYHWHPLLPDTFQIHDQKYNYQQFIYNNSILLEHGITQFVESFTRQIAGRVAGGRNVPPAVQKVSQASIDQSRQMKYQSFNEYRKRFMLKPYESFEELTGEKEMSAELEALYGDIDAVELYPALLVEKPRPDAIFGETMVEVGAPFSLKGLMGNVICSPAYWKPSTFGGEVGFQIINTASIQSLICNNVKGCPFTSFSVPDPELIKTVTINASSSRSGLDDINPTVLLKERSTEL

[8] = target: CYP1A2 (Homo sapiens, UniProt P05177); assay: CYP450, 1A2 Eurofins-Panlabs enzyme assay; conditions: compound concentration 10 uM
Chain of CYP1A2 (P05177 whole entry): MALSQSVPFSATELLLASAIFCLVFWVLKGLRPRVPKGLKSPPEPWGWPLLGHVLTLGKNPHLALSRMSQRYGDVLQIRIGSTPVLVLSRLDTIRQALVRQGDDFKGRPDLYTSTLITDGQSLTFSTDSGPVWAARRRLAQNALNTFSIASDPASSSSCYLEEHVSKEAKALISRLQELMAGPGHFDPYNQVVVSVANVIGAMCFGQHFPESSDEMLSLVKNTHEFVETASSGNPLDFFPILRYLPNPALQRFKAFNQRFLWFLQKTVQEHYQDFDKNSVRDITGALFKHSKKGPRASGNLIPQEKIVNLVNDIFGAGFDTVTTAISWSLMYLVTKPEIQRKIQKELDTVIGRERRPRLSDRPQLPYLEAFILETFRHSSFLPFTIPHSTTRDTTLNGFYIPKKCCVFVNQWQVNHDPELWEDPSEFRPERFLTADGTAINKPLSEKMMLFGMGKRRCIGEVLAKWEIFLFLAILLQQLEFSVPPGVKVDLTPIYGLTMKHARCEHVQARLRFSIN

[9] = target: Neutrophil elastase (Homo sapiens) (UniProt P08246); assay: Inhibition of Peptidase, ELA2 (Neutrophil Elastase 2) at 10 µM in the Eurofins-Panlabs enzyme assay (Eurofins_assay_166010); conditions: Compound concentration 10.0 uM
Chain of Neutrophil elastase (Homo sapiens) (P08246 whole entry): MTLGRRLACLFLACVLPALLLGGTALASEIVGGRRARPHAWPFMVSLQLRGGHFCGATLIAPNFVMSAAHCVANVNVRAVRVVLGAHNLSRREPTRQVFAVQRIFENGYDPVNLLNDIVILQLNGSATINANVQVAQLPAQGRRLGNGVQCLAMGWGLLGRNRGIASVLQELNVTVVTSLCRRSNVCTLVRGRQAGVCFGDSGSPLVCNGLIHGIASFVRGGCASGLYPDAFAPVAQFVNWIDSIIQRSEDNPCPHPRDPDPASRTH

[10] = target: Mitogen-activated protein kinase 3 (Homo sapiens) (UniProt P27361); assay: Inhibition of Protein Serine/Threonine Kinase, MAPK3 (ERK1) at 10 µM in the Eurofins-Panlabs enzyme assay (Eurofins_assay_171000); conditions: Compound concentration 10.0 uM
Chain of Mitogen-activated protein kinase 3 (Homo sapiens) (P27361 whole entry): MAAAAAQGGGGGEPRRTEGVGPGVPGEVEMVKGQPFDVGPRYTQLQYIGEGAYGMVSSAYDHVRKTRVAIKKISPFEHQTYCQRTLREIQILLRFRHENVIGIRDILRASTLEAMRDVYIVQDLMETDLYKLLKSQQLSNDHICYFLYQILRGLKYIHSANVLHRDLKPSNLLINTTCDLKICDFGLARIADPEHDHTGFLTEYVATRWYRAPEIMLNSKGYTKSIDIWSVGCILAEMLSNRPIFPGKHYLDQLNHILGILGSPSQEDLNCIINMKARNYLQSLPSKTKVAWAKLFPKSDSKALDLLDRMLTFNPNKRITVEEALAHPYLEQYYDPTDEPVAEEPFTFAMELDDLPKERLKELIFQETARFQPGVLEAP

[11] = target: Protein phosphatase 3 catalytic subunit alpha (Homo sapiens) (UniProt Q08209); assay: Inhibition of Protein Serine/threonine Phosphatase, PPP3CA (Calcineurin, PP2B) […] in the Eurofins-Panlabs enzyme assay (Eurofins_assay_188020); design: substrate with concentration; conditions: Compound concentration 10.0 uM
[12] = target: Epidermal growth factor receptor (Homo sapiens) (UniProt P00533); assay: Protein Tyrosine Kinase, EGF Receptor Eurofins-Panlabs enzyme assay; design: substrate with concentration; conditions: Compound concentration 10.0 uM
[13] = target: Receptor-type tyrosine-protein phosphatase C (Homo sapiens) (UniProt P08575); assay: Inhibition of Protein Tyrosine Phosphatase, PTPRC (CD45) at 10 µM in the Eurofins-Panlabs enzyme assay (Eurofins_assay_190010); conditions: Compound concentration 10.0 uM
Chain of Receptor-type tyrosine-protein phosphatase C (Homo sapiens) (P08575 whole entry): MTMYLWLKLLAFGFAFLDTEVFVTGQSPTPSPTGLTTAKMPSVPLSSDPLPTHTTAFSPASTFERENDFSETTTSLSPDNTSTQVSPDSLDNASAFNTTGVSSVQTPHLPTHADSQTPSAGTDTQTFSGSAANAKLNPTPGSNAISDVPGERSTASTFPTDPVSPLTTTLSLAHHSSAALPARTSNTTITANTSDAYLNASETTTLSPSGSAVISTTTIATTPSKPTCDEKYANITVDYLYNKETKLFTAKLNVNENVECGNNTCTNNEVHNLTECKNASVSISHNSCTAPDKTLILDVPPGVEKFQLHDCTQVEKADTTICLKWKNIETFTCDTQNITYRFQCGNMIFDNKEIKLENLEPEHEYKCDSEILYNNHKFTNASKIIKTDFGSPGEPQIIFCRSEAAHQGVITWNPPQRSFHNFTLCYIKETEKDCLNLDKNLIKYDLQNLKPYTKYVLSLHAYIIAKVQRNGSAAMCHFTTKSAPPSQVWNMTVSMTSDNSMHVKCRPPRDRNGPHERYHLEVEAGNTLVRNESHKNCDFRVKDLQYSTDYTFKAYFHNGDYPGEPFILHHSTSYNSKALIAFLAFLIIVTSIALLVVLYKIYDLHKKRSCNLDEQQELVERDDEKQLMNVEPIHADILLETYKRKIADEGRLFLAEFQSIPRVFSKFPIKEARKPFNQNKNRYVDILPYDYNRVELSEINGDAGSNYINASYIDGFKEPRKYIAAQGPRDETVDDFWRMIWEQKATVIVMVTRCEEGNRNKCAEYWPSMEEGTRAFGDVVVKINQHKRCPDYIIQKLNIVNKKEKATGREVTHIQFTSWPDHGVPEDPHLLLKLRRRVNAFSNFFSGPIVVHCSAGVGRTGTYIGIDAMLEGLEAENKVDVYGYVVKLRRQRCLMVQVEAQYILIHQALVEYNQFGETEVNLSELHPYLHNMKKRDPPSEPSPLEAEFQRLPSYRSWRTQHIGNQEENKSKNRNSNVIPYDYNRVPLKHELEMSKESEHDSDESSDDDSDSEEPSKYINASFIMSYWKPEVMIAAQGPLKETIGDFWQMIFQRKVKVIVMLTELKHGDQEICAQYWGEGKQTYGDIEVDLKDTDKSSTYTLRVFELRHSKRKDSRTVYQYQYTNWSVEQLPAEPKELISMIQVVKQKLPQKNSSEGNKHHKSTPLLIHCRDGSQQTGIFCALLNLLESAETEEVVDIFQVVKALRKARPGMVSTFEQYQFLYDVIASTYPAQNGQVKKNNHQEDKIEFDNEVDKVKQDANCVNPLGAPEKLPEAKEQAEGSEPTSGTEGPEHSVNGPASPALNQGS

[14] = organism: Rattus norvegicus; assay: Inhibition of Glycine, Strychnine-Sensitive at 10 µM in the Eurofins-Panlabs radioligand binding assay (Eurofins_assay_239000); conditions: Compound concentration 10.0 uM
[15] = Inhibition of Platelet-Derived Growth Factor (PDGF) at 10 µM in the Eurofins-Panlabs radioligand binding assay (Eurofins_assay_265200); conditions: Compound concentration 10 uM; Detection method Radioligand Binding; Incubation temperature 25 °C; Incubation time 45 min; Ligand [3H]PDGF; Ligand concentration 0.02 nM; Non-specific ligand with concentration 10 nM PDGF; Source of protein Swiss mouse 3T3 embryo cells
[16] = target: 5-hydroxytryptamine receptor 6 (Homo sapiens) (UniProt P50406); assay: Inhibition of Serotonin (5-Hydroxytryptamine) 5-HT6 at 10 µM in the Eurofins-Panlabs radioligand binding assay (Eurofins_assay_272200); conditions: Compound concentration 10.0 uM
[17] = target: 5-hydroxytryptamine receptor 5A (Homo sapiens) (UniProt P47898); conditions: Compound concentration 10.0 uM
[18] = target: Adenosine receptor A2a (Homo sapiens) (UniProt P29274); conditions: Compound concentration 10.0 uM
[19] = target: T1, Alpha-1A adrenergic receptor (Homo sapiens) (UniProt P35348); conditions: Rattus norvegicus; Compound concentration 10.0 uM
T1 sequence (whole entry): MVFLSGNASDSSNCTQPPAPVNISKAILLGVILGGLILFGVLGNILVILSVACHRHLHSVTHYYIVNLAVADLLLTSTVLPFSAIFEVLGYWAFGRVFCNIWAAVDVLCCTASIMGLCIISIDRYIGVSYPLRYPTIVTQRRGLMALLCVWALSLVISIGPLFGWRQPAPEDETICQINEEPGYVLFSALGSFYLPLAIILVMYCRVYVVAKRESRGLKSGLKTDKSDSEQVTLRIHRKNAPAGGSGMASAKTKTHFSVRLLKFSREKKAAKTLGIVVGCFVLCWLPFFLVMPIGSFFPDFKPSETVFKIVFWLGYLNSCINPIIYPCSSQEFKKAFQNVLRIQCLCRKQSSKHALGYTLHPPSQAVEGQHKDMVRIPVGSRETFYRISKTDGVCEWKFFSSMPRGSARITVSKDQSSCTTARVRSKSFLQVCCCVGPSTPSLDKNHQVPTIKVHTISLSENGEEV

[20] = target: D(1A) dopamine receptor (Homo sapiens, UniProt P21728); conditions: Compound concentration 10.0 uM
Chain of D(1A) dopamine receptor (P21728 whole entry): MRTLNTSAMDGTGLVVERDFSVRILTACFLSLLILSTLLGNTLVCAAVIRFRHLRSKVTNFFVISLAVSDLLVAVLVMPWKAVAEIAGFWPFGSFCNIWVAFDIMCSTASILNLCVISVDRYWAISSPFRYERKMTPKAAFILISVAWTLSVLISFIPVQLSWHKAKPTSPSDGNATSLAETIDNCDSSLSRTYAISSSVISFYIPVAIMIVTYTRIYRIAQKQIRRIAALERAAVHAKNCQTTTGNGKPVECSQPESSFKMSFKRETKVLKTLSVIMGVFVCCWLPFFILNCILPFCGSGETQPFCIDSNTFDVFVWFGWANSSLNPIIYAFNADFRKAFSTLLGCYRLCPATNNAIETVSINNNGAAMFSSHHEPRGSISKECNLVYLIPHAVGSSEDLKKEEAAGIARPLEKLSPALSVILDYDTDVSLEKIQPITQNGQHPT

[21] = target: Endothelin-1 receptor (Homo sapiens) (UniProt P25101); conditions: Compound concentration 10.0 uM
Chain of Endothelin-1 receptor (Homo sapiens) (P25101 whole entry): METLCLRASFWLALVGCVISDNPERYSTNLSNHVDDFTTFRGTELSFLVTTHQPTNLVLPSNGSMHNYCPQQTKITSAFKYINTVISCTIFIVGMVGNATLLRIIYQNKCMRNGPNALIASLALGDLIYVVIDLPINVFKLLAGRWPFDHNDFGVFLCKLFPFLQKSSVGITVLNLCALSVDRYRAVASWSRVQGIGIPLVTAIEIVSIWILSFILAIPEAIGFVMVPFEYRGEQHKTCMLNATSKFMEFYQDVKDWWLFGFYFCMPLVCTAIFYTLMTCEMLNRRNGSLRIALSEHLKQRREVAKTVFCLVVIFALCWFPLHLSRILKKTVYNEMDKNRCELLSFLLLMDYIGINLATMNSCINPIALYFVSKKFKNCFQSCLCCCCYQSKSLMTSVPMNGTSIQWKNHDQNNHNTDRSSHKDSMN

[22] = target: Estrogen receptor (Homo sapiens) (UniProt P03372); conditions: Compound concentration 10.0 uM
[23] = target: Histamine H2 receptor (Homo sapiens) (UniProt P25021); conditions: Compound concentration 10.0 uM
[24] = target: Kappa-type opioid receptor (Homo sapiens) (UniProt P41145); conditions: Compound concentration 10.0 uM
[25] = target: cGMP-specific 3',5'-cyclic phosphodiesterase (Homo sapiens) (UniProt O76074); conditions: Compound concentration 10.0 uM
[26] = target: T2, 5-hydroxytryptamine receptor 2C (Homo sapiens) (UniProt P28335); conditions: Compound concentration 10.0 uM
T2 sequence (whole entry): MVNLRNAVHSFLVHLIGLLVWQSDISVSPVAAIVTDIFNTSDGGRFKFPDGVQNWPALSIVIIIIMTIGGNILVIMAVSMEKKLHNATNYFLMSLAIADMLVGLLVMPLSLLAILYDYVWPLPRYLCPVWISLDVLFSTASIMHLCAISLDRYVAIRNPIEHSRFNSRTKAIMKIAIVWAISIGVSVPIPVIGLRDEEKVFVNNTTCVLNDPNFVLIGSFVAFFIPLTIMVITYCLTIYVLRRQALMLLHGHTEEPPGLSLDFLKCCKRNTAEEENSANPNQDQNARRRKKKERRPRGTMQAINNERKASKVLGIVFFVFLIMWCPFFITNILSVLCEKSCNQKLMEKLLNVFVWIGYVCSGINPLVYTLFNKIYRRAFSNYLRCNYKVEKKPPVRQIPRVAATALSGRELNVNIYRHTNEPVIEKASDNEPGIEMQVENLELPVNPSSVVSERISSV

Chain of Gonadotropin-releasing hormone receptor (P30968 whole entry): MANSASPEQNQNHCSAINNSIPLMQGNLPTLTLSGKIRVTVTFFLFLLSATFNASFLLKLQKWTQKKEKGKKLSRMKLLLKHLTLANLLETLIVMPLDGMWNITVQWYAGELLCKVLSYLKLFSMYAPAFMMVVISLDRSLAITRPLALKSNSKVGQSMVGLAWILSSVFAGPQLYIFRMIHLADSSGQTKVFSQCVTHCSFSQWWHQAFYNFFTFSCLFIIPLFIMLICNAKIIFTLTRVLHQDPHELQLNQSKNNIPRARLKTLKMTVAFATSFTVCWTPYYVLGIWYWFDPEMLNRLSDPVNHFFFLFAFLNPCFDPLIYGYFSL

## O=C(NCc1ncc(C(F)(F)F)cc1Cl)c1ccc2c(c1)C1(CCS(=O)(=O)CC1)[C@@H](C1CC1)N2S(=O)(=O)c1ccc(F)cc1 [BAY-786]
[1]
  IC50: 2400 nM (not active)

## O=C(NCc1ncc(C(F)(F)F)cc1Cl)c1ccc2c(c1)C1(CCS(=O)(=O)CC1)[C@H](C1CC1)N2S(=O)(=O)c1ccc(F)cc1 [BAY-784]
[2]
  inhibition: -4%
[3]
  inhibition: 4%
[4]
  inhibition: 0%
[5]
  inhibition: 0%
[6]
  inhibition: -5%
[7]
  inhibition: 4%
[8]
  inhibition at 10 µM: -2% (not active)
[9]
  inhibition: 0%
[10]
  inhibition: 87%
[11]
  inhibition: 16%
[12]
  inhibition: -3%
[13]
  inhibition: -5%
[14]
  inhibition: 4%
[15]
  inhibition at 10 µM: -4% (not active)
[16]
  inhibition: 14%
[17]
  inhibition: -8.25%
[18]
  inhibition: 0%
[19]
  inhibition: 7%
[20]
  inhibition: 6%
[21]
  inhibition: 16%
[22]
  inhibition: 21%
[23]
  inhibition: 1%
[24]
  inhibition: 7%
[25]
  inhibition: -5%
[26]
  inhibition: 9%
